We go through 13 compounds from patent publication US12098148B2, “Therapeutic compounds” (C4X Discovery Limited, priority 2018, dated 2024).

In general, IC50 refers to the concentration that inhibits the measured activity by half. Low readings indicate higher potency, high ones lower potency. For orientation: EC50 means the concentration that produces a half-maximal response.

Assay [1] concerns the target human KEAP1 (N-term, residues 321-609) (Homo sapiens, UniProt Q14145). The assay can be described thus: biochemical.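 Note: fluorescence polarization competition assay of Kelch domain binding to NRF2, 12-point 1:3 dilution series from 10 µM, read after 1 h at room temperature, floor 10 nM.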
The test system of assay [2] is NQO1 mRNA in BEAS-2B cells. The assay can be described thus: Beas2B NQO1 mRNA cell based assay. The arrangement: species or system human. Particulars: Homo sapiens, BEAS-2B, 24 h, 24 h compound treatment, increase in NQO1 mRNA vs vehicle (0.1% DMSO), read-out: EC50. The protocol:
Beas2B NQO1 mRNA Cell Based Assay
The up regulation of the NRF2 mediated gene NAD(P)H:quinone acceptor oxidoreductase 1 (NQO1) was measured using the following assay method: BEAS-2B cells (ATCC CRL-9609) were plated in 96-well clear plates at 20,000 cells/well in 75 μL of cell culture media and incubated overnight (37° C., 5% CO2). On day 2, 25 μL of compound or controls were added to the cells for 24 h. On day 3, the medium was aspirated from the plate and the Cells-to-CT™ 1-Step TaqMan® Kit (Ambion A25603) was used to perform expression analysis directly from cultured cells without RNA purification according to the manufacturer's instructions.
Briefly, cells were washed with ice cold PBS and 22.5 μL of room-temperature DNase/Lysis solution was added to the cells and incubated at room temperature for 5 minutes. To stop the reaction, 2.25 μL of stop solution was added to the cell lysate. The samples were diluted 1:5 using nuclease free water and 2.5 μL transferred into the PCR plate. Real-time PCR was performed using the C-1000 Thermal Cycler (Bio-Rad) using human beta actin as the internal control. The cDNA was amplified with a specific primer for NQO1 using the 1-step RT-PCR master mix (Ambion Cells-to-CT™ 1-Step TaqMan® Kit A25603). The primers/probes sets that were used for amplification of cDNA were obtained from TaqMan Gene Expression Assays (Applied Biosystems). The comparative CT (ΔΔCT) relative quantification method was used to calculate the relative mRNA level of the target gene NQO1 as described in the Applied Biosystems Chemistry Guide.

Chain of human KEAP1 (N-term, residues 321-609) (Q14145 321-609): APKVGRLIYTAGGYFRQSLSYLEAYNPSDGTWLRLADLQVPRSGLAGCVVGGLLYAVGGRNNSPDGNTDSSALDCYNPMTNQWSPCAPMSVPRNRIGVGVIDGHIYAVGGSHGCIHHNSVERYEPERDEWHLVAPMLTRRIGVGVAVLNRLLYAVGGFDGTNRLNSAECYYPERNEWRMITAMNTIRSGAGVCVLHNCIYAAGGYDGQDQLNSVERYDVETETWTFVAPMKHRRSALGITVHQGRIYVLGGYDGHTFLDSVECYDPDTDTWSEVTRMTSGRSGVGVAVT

For `[2H][C@@H]1C[C@@H](C(=O)N2CCc3c(Cl)ccc(OCc4nnn(C)c4C(F)F)c3[C@H]2CN2CC3(CC3)CC2=O)[C@@](C)(C(=O)O)C[C@@H]1[2H]` [Example 210, (1S,2R,4S,5R)-2-((S)-5-chloro-8-((5-(difluoromethyl)-1-methyl-1H-1,2,3-triazol-4-yl)methoxy)-1-((6-oxo-5-azaspiro[2.4]heptan-5-yl)methyl)-1,2,3,4-tetrahydroisoquinoline-2-carbonyl)-1-methylcyclohexane-1-carboxylic-4,5-d2 acid], half-maximal inhibition in assay [1] (IC50) was put at 5.9 nM. Besides, the EC50 in assay [2] amounted to 0.24 nM.

As for `O=C(O)[C@H]1CCCC[C@H]1C(=O)N1CCc2cccc(O[C@H]3CCN(C(=O)c4cncs4)C3)c2[C@H]1CN1C(=O)c2ccccc2C1=O` [Example 6, (1S,2R)-2-((S)-1-((1,3-dioxoisoindolin-2-yl)methyl)-8-(((S)-1-(thiazole-5-carbonyl)pyrrolidin-3-yl)oxy)-1,2,3,4-tetrahydroisoquinoline-2-carbonyl)cyclohexane-1-carboxylic acid], the IC50 in assay [1] is 5.6 nM. Further, in assay [2], the EC50 came to 78 nM.

Compound `CC(C)n1ccnc1COc1ccc(Br)c2c1[C@@H](CN1Cc3ccccc3C1=O)N(C(=O)[C@@H]1CCCC[C@@H]1C(=O)O)CC2` [Example 40, (1S,2R)-2-((S)-5-bromo-8-((1-isopropyl-1H-imidazol-2-yl)methoxy)-1-((1-oxoisoindolin-2-yl)methyl)-1,2,3,4-tetrahydroisoquinoline-2-carbonyl)cyclohexane-1-carboxylic acid] returned an IC50 in assay [1] of 9 nM. For the same compound, the EC50 in assay [2] was 94 nM.

`Cn1nnc(COc2ccc(Cl)c3c2[C@@H](CN2CC4(CC4)CC2=O)N(C(=O)[C@@H]2CC=CC[C@]2(C)C(=O)O)CC3)c1C(F)F` [Example 201, (1S,6R)-6-((S)-5-chloro-8-((5-(difluoromethyl)-1-methyl-1H-1,2,3-triazol-4-yl)methoxy)-1-((6-oxo-5-azaspiro[2.4]heptan-5-yl)methyl)-1,2,3,4-tetrahydroisoquinoline-2-carbonyl)-1-methylcyclohex-3-ene-1-carboxylic acid] returned a concentration for half-maximal inhibition (IC50) in assay [1] of 3.3 nM. Besides, the EC50 in assay [2] came out at 0.33 nM.

Take `C[C@H]1CCC(=O)N1C[C@@H]1c2c(OCc3nnn(C)c3C(F)F)ccc(Cl)c2CCN1C(=O)[C@@H]1CCCC[C@]1(C)C(=O)O` [Example 195, (1S,2R)-2-((S)-5-chloro-8-((5-(difluoromethyl)-1-methyl-1H-1,2,3-triazol-4-yl)methoxy)-1-(((S)-2-methyl-5-oxopyrrolidin-1-yl)methyl)-1,2,3,4-tetrahydroisoquinoline-2-carbonyl)-1-methylcyclohexane-1-carboxylic acid]: the concentration for half-maximal inhibition (IC50) in assay [1] was 13 nM. The EC50 in assay [2] came to 6.8 nM.

In assay [1], `Cn1nnc(COc2ccc(Cl)c3c2[C@@H](CN2CC4(CC4)CC2=O)N(C(=O)[C@@H]2C[C@@H]4C[C@@H]4C[C@]2(C)C(=O)O)CC3)c1C(F)F` [Example 207, (1R,3S,4R,6S)-4-((S)-5-chloro-8-((5-(difluoromethyl)-1-methyl-1H-1,2,3-triazol-4-yl)methoxy)-1-((6-oxo-5-azaspiro[2.4]heptan-5-yl)methyl)-1,2,3,4-tetrahydroisoquinoline-2-carbonyl)-3-methylbicyclo[4.1.0]heptane-3-carboxylic acid] displayed an IC50 of 5.1 nM. The EC50 in assay [2] turned out to be 0.89 nM.

In assay [1], `C[C@]1(C(=O)O)CCCC[C@H]1C(=O)N1CCc2c(Cl)ccc(OCc3nnn4c3CCC4)c2[C@H]1CN1CC2(CC2)CC1=O` [Example 181, (1S,2R)-2-((S)-5-chloro-8-((5,6-dihydro-4H-pyrrolo[1,2-c][1,2,3]triazol-3-yl)methoxy)-1-((6-oxo-5-azaspiro [2.4]heptan-5-yl)methyl)-1,2,3,4-tetrahydroisoquinoline-2-carbonyl)-1-methylcyclohexane-1-carboxylic acid] showed an IC50 of 5.1 nM. Moreover, the EC50 in assay [2] was 0.69 nM.

Take `C[C@]1(C(=O)O)CCCC[C@H]1C(=O)N1CCc2c(Cl)ccc(OCc3nnc4n3CCCC4)c2[C@H]1CN1CC2(CC2)CC1=O` [Example 186, (1S,2R)-2-((S)-5-chloro-1-((6-oxo-5-azaspiro[2.4]heptan-5-yl)methyl)-8-((5,6,7,8-tetrahydro-[1,2,4]triazolo[4,3-a]pyridin-3-yl)methoxy)-1,2,3,4-tetrahydroisoquinoline-2-carbonyl)-1-methylcyclohexane-1-carboxylic acid]: the IC50 in assay [1] turned out to be 5.6 nM. The EC50 in assay [2] came to 4.7 nM.

Turning to `CC(=O)N1CC[C@H](Oc2cccc3c2[C@@H](CN2C(=O)c4ccccc4C2=O)N(C(=O)[C@@H]2CCCC[C@@H]2C(=O)O)CC3)C1` [Example 3, (1S,2R)-2-((S)-8-(((S)-1-Acetylpyrrolidin-3-yl)oxy)-1-((1,3-dioxoiso-indolin-2-yl)methyl)-1,2,3,4-tetrahydroisoquinoline-2-carbonyl)cyclohexane-1-carboxylic acid], the IC50 in assay [1] came to 5.6 nM. For the same compound, the EC50 in assay [2] is 120 nM.

As to `COCc1c(COc2ccc(Cl)c3c2[C@@H](CN2CC4(CC4)CC2=O)N(C(=O)[C@@H]2CCCC[C@]2(C)C(=O)O)CC3)nnn1C` [Example 160, (1S,2R)-2-((S)-5-chloro-8-((5-(methoxymethyl)-1-methyl-1H-1,2,3-triazol-4-yl)methoxy)-1-((6-oxo-5-azaspiro [2.4]heptan-5-yl)methyl)-1,2,3,4-tetrahydroisoquinoline-2-carbonyl)-1-methylcyclohexane-1-carboxylic acid], in assay [1], half-maximal inhibition (IC50) required 5 nM. In addition, the EC50 in assay [2] worked out at 0.72 nM.

Turning to `O=C(O)[C@H]1CCCC[C@H]1C(=O)N1CCc2c(Cl)ccc(OCc3ccsn3)c2[C@H]1CN1CCCC1=O` [Example 71, (1S,2R)-2-((S)-5-Chloro-8-isothiazol-3-ylmethoxy)-1-((2-oxopyrrolidin-1-ylmethyl)-1,2,3,4-tetrahydroisoquinoline-2-carbonyl) cyclohexane-1-carboxylic acid], in assay [1], half-maximal inhibition (IC50) was put at 6.5 nM. In addition, the EC50 in assay [2] was found to be 78 nM.

On to `CC(C)n1nnc(COc2ccc(Cl)c3c2[C@@H](CN2CCCC2=O)N(C(=O)[C@@H]2CCCC[C@]2(C)C(=O)O)CC3)c1C(F)F` [Example 121, (1S,2R)-2-((S)-5-chloro-8-((5-(difluoromethyl)-1-isopropyl-1H-1,2,3-triazol-4-yl)methoxy)-1-((2-oxopyrrolidin-1-yl)methyl)-1,2,3,4-tetrahydroisoquinoline-2-carbonyl)-1-methylcyclohexane-1-carboxylic acid], for which the half-inhibitory concentration (IC50) in assay [1] was 6.3 nM. In assay [2], the EC50 came to 11 nM.

In the case of `CC1(C)CC(COc2ccc(Cl)c3c2[C@@H](CN2CC4(CC4)CC2=O)N(C(=O)[C@@H]2CCCC[C@]2(C)C(=O)O)CC3)=NO1` [Example 136, (1S,2R)-2-((S)-5-chloro-8-((5,5-dimethyl-4,5-dihydroisoxazol-3-yl)methoxy)-1-((6-oxo-5-azaspiro[2.4]heptan-5-yl)methyl)-1,2,3,4-tetrahydroisoquinoline-2-carbonyl)-1-methylcyclohexane-1-carboxylic acid], in assay [1], the IC50 turned out to be 22 nM. Also, in assay [2], the half-maximal effective concentration (EC50) was 1700 nM.
